According to patent publication US20090068169A1, “2,4,6-triamino-s-triazine-based compounds which bind to the tail (fc) portion of immunoglobulins and their use” (priority 2004, published 2009):
Marks after values point to notes of the source that are not given here.

Key:
[1] = molecular target: T1, Fc portion of human IgG; test: Competitive protein A binding ELISA; settings: for IC50: inhibition of binding of protein A to HRP-human IgG, assay in PBS; for binding activity, in words: refers to Table 1, bis-aminoanilino arrangement
T1 construct: fused on or other part: horseradish peroxidase chemically conjugated to the IgG (detection label)
Experimental: The competitive protein A binding ELISA assay was performed on a 96-well plate MAXISORP® surface to enhance the binding of protein A to the bottom of the plate. The wells were coated with 100 μL of protein A (0.8 μg) and incubated overnight at 4° C. After incubation, unbound protein A was removed by three washes with phosphate buffer saline (PBS). The plate was then incubated with 100 μL/well of a 2% solution of bovine serum albumin (BSA) for 1 h at 37° C. to block non specific protein binding. After incubation, the plate was washed three times with PBS. 50 μL of compound or protein A, diluted in PBS or PBS-20% DMSO at appropriate concentration, were added to the wells followed by addition of 50 μL of peroxidase-conjugated human IgG (HRP-IgG). After 1 h incubation at 37° C., the plate was washed three times with PBS to remove unbound HRP-IgG. […] The plate was then read at 405 nm on a EL 800, universal microplate reader (Bio-Tek). Data was analyzed in Microsoft Excel and the concentration of compound which inhibits 50% binding of protein A (IC50) was calculated using Prism software.

[2] = tested on: oxazolone-induced delayed-type hypersensitivity (DTH) in mice; test: Oxazolone-induced delayed-type hypersensitivity (DTH); type: in vivo; settings: intravenous; for Activity (ear thickness inhibition) First Challenge: first oxazolone challenge; for Activity (ear thickness inhibition) First Challenge / Activity (ear thickness inhibition) Second Challenge: n.s. = non significant effect; for Activity (ear thickness inhibition) Second Challenge: second oxazolone challenge; for inhibition of the inflammation after the second challenge of oxazolone: FIG. 2, second challenge
Experimental: Compounds were tested for their ability to treat oxazolone-induced delayed-type hypersensitivity (DTH) in mice. On day 0, mice were sensitized with 100 μL of oxazolone in 5% acetone. On day 0, 1 and 2, mice were treated by intravenous administration of the vehicle (control) or methotrexate (MTX; positive control) or the compound at 50 mg/kg (compound 3) or 25 mg/kg (compound 1 or 10). Mice were challenged with an application of 50 μL of oxazolone on the surface of the right ear (first challenge, day 3; second challenge, day 10). Ear thickness was measured on day 4 to day 7, and on day 11 to 14. Redness and crust formation was also observed. Mice were sacrificed on day 14. TDTH (CD4) cells play an important role in regulating the intensity of the DTH response. Compounds may exert an inhibitory influence on the DTH response through its inhibition of T-cell activation and DNA, RNA and/or protein synthesis.

[3] = tested on: oxazolone-induced delayed-type hypersensitivity (DTH) in mice; test: as above; type: in vivo; settings: per os; for Activity (ear thickness inhibition) First Challenge: first oxazolone challenge; for Activity (ear thickness inhibition) Second Challenge: second oxazolone challenge, n.s. = non significant effect

Row | IC50 [1] [nM] | Compound | further results
1 | 65 | Nc1ccc(CCNc2nc(Nc3cccc(N)c3)nc(Nc3cccc(N)c3)n2)cc1 [Compound 20] | –
2 | 40 | Nc1cccc(Nc2nc(NCCCCO)nc(Nc3cccc(N)c3)n2)c1 [Compound 39] | –
3 | 36 | Nc1cccc(Nc2nc(NCCO)nc(Nc3cccc(F)c3)n2)c1 [Compound 41] | –
4 | 15 | Nc1cccc(Nc2nc(NCCCCCCO)nc(Nc3cccc(N)c3)n2)c1 [Compound 19] | Activity (ear thickness inhibition) First Challenge [2]: ↓ (n.s.); Activity (ear thickness inhibition) Second Challenge [2]: No effect
5 | 68 | NCCCCCCNc1nc(Nc2cccc(N)c2)nc(Nc2cccc(N)c2)n1 [Compound 36] | –
6 | 93 | Nc1ccc(CCNc2nc(NCCCCCCO)nc(Nc3cccc(N)c3)n2)cc1 [Compound 1] | oral activity on DTH [3]: oral activity; Activity (ear thickness inhibition) First Challenge [3]: ↓ per os (p = 0.003); Activity (ear thickness inhibition) Second Challenge [3]: ↓ (n.s.)*; inhibition of the inflammation after the second challenge of oxazolone [2]: significant inhibition of the inflammation; Activity (ear thickness inhibition) First Challenge [2]: No effect
7 | 300 | NCCCCCCNc1nc(NCCc2ccc(N)cc2)nc(Nc2cccc(N)c2)n1 [Compound 4] | –
8 | 106 | Nc1ccc(CCNc2nc(NCCCCO)nc(Nc3cccc(N)c3)n2)cc1 [Compound 3] | oral activity on DTH [3]: oral activity; Activity (ear thickness inhibition) First Challenge [3]: ↓ per os (p = 0.03); Activity (ear thickness inhibition) Second Challenge [3]: ↓ (n.s.); inhibition of the inflammation after the second challenge of oxazolone [2]: significant inhibition of the inflammation
9 | 37 | CN(C[C@H](O)[C@@H](O)[C@H](O)[C@H](O)CO)c1nc(Nc2cccc(N)c2)nc(Nc2cccc(N)c2)n1 [Compound 35] | Activity (ear thickness inhibition) Second Challenge [2]: No effect
10 | 243 | COc1cccc(Nc2nc(NCC3CC3)nc(Nc3cccc(N)c3)n2)c1 [Compound 24] | –
11 | 65 | Nc1ccc(CNc2nc(N)nc(Nc3cccc(N)c3)n2)cc1 [Compound 17] | –
12 | 106 | Nc1ccc(CCNc2nc(NCc3cccc(N)c3)nc(Nc3cccc(N)c3)n2)cc1 [Compound 10] | oral activity on DTH [3]: oral activity; Activity (ear thickness inhibition) First Challenge [3]: No effect per os; Activity (ear thickness inhibition) Second Challenge [2]: No effect
13 | 86 | COc1ccc(Nc2nc(NCCO)nc(Nc3cccc(N)c3)n2)cc1 [Compound 23] | –
14 | 222 | Nc1cccc(Nc2nc(NCCO)nc(NCc3cccc(F)c3)n2)c1 [Compound 29] | –
15 | 38 | Nc1cccc(Nc2nc(NCC3CC3)nc(Nc3cccc(N)c3)n2)c1 [Compound 31] | Activity (ear thickness inhibition) Second Challenge [2]: ↓ (n.s.)
16 | 148 | Nc1ccc(CNc2nc(NCCCCCCO)nc(Nc3cccc(N)c3)n2)cc1 [Compound 2] | Activity (ear thickness inhibition) Second Challenge [2]: No effect
17 | 292 | COc1ccc(Nc2nc(N)nc(Nc3cccc(N)c3)n2)cc1 [Compound 27] | –
18 | 159 | Nc1cccc(CNc2nc(N)nc(Nc3cccc(N)c3)n2)c1 [Compound 16] | Activity (ear thickness inhibition) First Challenge [2]: No effect; Activity (ear thickness inhibition) Second Challenge [2]: No effect
19 | 114 | NCCNc1nc(Nc2cccc(N)c2)nc(Nc2cccc(N)c2)n1 [Compound 21] | –
20 | 62 | Nc1cccc(Nc2nc(NCCO)nc(Nc3ccc(F)cc3)n2)c1 [Compound 28] | Activity (ear thickness inhibition) First Challenge [2]: ↓ (n.s.)
21 | 126 | COc1ccc(Nc2nc(Nc3cccc(N)c3)nc(NC3CC3)n2)cc1 [Compound 26] | –

Row | IC50 [1] [nM] | Compound | further results
22 | 75 | COc1ccc(Nc2nc(NCC3CC3)nc(Nc3cccc(N)c3)n2)cc1 [Compound 25] | –
23 | 56 | Nc1cccc(Nc2nc(NCCO)nc(Nc3ccc(Cl)cc3)n2)c1 [Compound 44] | –
24 | 86 | Nc1cccc(Nc2nc(NCCO)nc(NCc3ccccc3F)n2)c1 [Compound 43] | –
25 | 3 | Nc1cccc(CNc2nc(Nc3cccc(N)c3)nc(Nc3cccc(N)c3)n2)c1 [Compound 12] | binding activity, in words [1]: potent binding activity
26 | 53 | Nc1ccc(CCNc2nc(Nc3cccc(N)c3)nc(NC3CCC3)n2)cc1 [Compound 8] | –
27 | 85 | Nc1ccc(CCNc2nc(NCc3ccc(N)cc3)nc(Nc3cccc(N)c3)n2)cc1 [Compound 11] | –
28 | 131 | Nc1ccc(CCNc2nc(Nc3cccc(N)c3)nc(NC3CCCC3)n2)cc1 [Compound 9] | Activity (ear thickness inhibition) Second Challenge [2]: No effect
29 | 1 | Nc1ccc(CNc2nc(Nc3cccc(N)c3)nc(Nc3cccc(N)c3)n2)cc1 [Compound 13] | binding activity, in words [1]: potent binding activity
30 | 63 | COc1cccc(Nc2nc(NCCO)nc(Nc3cccc(N)c3)n2)c1 [Compound 22] | –
31 | 377 | NCCNc1nc(NCCc2ccc(N)cc2)nc(Nc2cccc(N)c2)n1 [Compound 5] | oral activity on DTH [3]: oral activity; Activity (ear thickness inhibition) First Challenge [3]: ↓ per os (p = 0.008); Activity (ear thickness inhibition) Second Challenge [3]: ↓ (n.s.)
32 | 312 | Nc1cccc(Nc2nc(NCCc3ccccc3N)nc(NCC3CC3)n2)c1 [Compound 38] | –
33 | 97 | Nc1cccc(Nc2nc(N)nc(NCc3ccccc3N)n2)c1 [Compound 18] | –
34 | 38 | Nc1cccc(Nc2nc(Nc3cccc(N)c3)nc(NC3CC3)n2)c1 [Compound 32] | –
35 | 170 | Nc1cccc(Nc2nc(N)nc(Nc3cccc(N)c3)n2)c1 [Compound 33] | –
36 | 88 | Nc1cccc(CCNc2nc(NCC3CC3)nc(Nc3cccc(N)c3)n2)c1 [Compound 30] | –
37 | 469 | COc1cccc(Nc2nc(Nc3cccc(N)c3)nc(Nc3cccc(OC)c3)n2)c1 [Compound 45] | –
38 | 42 | Nc1cccc(Nc2nc(NCCO)nc(Nc3cccc(N)c3)n2)c1 [Compound 34] | –
39 | 306 | COc1cccc(Nc2nc(NCCN)nc(Nc3cccc(N)c3)n2)c1 [Compound 14] | –
40 | 415 | COc1ccc(Nc2nc(NCCN)nc(Nc3cccc(N)c3)n2)cc1 [Compound 15] | –
41 | 39 | Nc1cccc(Nc2nc(NCCO)nc(NCc3ccc(F)cc3)n2)c1 [Compound 42] | –

Row | Compound | IC50 [1] [nM] | further results
42 | Protein A (Control): Staphylococcal protein A, cell-surface bacterial protein which binds the Fc (tail) portion of most antibodies [reference compound] | 187 | –
